Laboratory results published in patent publication US20090238808A1, “Process for the identification of novel enzyme interacting compounds” (priority 2005, published 2009).

Legend:
Assay in all cases: Kinobeads elution with test compound, mouse brain lysate, MS
Format in all cases: binding
Conditions in all cases: kinase released from kinobeads by specific elution
[1] = target: AAK1 (Mus musculus, UniProt Q3UHJ0)
Protocol: (§1) This example illustrates competitive elution of proteins bound to kinobeads with non-modified test compounds (see particularly the fourth aspect of the invention). The kinobeads (as described in example 1) were contacted with mouse brains lysate, bound proteins were eluted with various test compounds and the released proteins were analysed by mass spectrometry.
(§2) The kinobeads were contacted with mouse brain lysate under conditions that allow the binding of the proteins in the lysate to the ligands. The binding conditions were close to physiological by choosing suitable buffer conditions preserving the function of the proteins. After removing non-captured proteins through a gentle washing procedure the bound proteins were contacted with a test compound for protein elution.
(§3) Various test compounds (see section 2.7) were used to release bound proteins following these steps:
(§4) 1. Resuspend beads with bound proteins (section 2.4) in 1×DP buffer/0.2% NP-40 as 1:3 slurry (volume/volume). 2. Transfer 20 μl the 1:3 slurry into MoBiTech columns (equivalent to 5 μl of beads). 3. Place the column into an Eppendorf tube and centrifuge it for 15 seconds at 800 rpm at 4° C. Close columns with lower lid. 4. Add 10 μl elution buffer containing 1.0 mM of the test compound (concentration ranges of 0.1 to 1.0 mM are suitable). As a control use elution buffer containing 2% DMSO or 2% DMF dependent on the solvent used for dissolving the test compound. Close column with upper lid. 5. Incubate for 30 minutes at 4° C. in an Eppendorf incubator at 700 rpm. 6. Open column (first top, then bottom), put column back into siliconized tube (SafeSeal Microcentrifuge Tubes, cat. no 11270, Sorenson BioScience, Inc.). To harvest the eluate centrifuge 2 minutes at 2.000 rpm in table top centrifuge at room temperature. The typical volume of the eluate is approximately 15 μl. 7. Add 5 μl 4× NuPAGE SDS Sample Buffer (Invitrogen, NP0007) containing 100 mM DTT (DTT has to be added just prior to use). 8. Incubate for 30 minutes at 50° C. 9. Add 1/10 volume of 200 mg/ml iodoacetamide, incubate for 30 min at room temperature, protect from light. This reaction leads to the alkylation of cysteines for mass spectrometry. 10. Before loading samples onto the gel, centrifuge samples for 5 minutes at 15.000 rpm in order to remove precipitates. 11. For protein separation apply 10 μl sample to NuPAGE 4-12% Bis-Tris gel (Invitrogen, NPO335). 2.6 Preparation of Stock Solutions used in this Protocol
(§5) Search criteria varied depending on which mass spectrometer was used for the analysis.

[2] = target: CDK5 (Mus musculus, UniProt P49615)
Protocol: as §1, §2, §3, §4, §5

[3] = target: T1, CaMK2a (Mus musculus, UniProt P11798)
T1 construct: […]; from tissue; host or cells: mouse brain
Protocol: as §1, §2, §3, §4, §5

[4] = target: CaMK2b (Mus musculus, UniProt P28652)
Protocol: as §1, §2, §3, §4, §5

[5] = target: T2, CaMK2d (Mus musculus, UniProt Q6PHZ2)
T2 construct: […]; from tissue; host or cells: mouse brain
Protocol: as §1, §2, §3, §4, §5

[6] = target: T3, EphB2 (Mus musculus, UniProt P54763)
T3 sequence (P54763 19-986): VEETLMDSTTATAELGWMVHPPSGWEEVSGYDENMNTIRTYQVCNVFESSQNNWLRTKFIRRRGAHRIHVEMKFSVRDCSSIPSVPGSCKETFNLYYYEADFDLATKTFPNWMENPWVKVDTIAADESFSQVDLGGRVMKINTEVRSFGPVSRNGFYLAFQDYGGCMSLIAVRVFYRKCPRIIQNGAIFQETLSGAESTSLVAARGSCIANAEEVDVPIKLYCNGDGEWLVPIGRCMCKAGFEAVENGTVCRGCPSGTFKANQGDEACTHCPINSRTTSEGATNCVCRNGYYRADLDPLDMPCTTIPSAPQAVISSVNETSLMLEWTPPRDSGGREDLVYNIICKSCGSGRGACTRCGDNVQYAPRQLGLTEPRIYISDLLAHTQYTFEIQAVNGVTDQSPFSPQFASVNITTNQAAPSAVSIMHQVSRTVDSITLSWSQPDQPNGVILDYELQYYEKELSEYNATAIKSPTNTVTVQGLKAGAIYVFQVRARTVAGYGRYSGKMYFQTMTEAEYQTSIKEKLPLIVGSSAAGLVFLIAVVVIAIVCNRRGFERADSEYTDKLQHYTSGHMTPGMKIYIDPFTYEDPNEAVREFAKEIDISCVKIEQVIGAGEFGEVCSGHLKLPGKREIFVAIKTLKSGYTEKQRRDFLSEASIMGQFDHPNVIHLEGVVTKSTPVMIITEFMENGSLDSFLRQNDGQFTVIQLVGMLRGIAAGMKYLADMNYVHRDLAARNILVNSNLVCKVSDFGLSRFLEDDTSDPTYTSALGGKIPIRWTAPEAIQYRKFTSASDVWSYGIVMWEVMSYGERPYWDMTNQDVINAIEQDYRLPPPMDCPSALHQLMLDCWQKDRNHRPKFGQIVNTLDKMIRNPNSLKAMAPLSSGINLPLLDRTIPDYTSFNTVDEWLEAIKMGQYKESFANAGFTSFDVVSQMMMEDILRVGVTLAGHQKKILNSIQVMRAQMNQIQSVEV
Protocol: as §1, §2, §3, §4, §5

[7] = target: T4, Erk1ps5 (Mus musculus, UniProt Q63844)
T4 construct: […]; from tissue; host or cells: mouse brain
Protocol: as §1, §2, §3, §4, §5

[8] = target: T5, JNK1 (Mus musculus, UniProt Q91Y86)
T5 construct: from tissue; host or cells: mouse brain
Protocol: as §1, §2, §3, §4, §5

[9] = target: T6, JNK2 (Mus musculus, UniProt Q9WTU6)
T6 construct: from tissue; host or cells: mouse brain
Protocol: as §1, §2, §3, §4, §5

[10] = target: T7, JNK3 (Mus musculus, UniProt Q61831)
T7 construct: from tissue; host or cells: mouse brain
Protocol: as §1, §2, §3, §4, §5

[11] = target: T8, PYK2 (Mus musculus, UniProt Q9QVP9)
T8 construct: from tissue; host or cells: mouse brain
Protocol: as §1, §2, §3, §4, §5

[12] = tested on: YESps
Protocol: as §1, §2, §3, §4, §5

[13] = tested on: T9, RSK3 (Mus musculus)
T9 construct: from tissue; host or cells: mouse brain
Protocol: as §1, §2, §3, §4, §5

T2 sequence (Q6PHZ2 whole entry): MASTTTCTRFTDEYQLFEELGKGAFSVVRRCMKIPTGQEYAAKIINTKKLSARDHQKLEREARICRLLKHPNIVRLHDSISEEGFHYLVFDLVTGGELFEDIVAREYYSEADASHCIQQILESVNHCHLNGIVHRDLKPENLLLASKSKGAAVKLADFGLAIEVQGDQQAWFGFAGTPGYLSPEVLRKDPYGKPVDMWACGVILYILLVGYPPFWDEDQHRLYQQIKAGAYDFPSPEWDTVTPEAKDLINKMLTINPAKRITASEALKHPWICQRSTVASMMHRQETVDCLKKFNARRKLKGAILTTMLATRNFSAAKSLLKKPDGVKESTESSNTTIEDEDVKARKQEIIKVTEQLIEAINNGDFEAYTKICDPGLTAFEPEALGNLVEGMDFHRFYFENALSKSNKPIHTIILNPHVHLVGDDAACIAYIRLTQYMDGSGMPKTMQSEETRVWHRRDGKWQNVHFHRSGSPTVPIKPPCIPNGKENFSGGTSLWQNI
AAK1, sequence (Q3UHJ0 whole entry): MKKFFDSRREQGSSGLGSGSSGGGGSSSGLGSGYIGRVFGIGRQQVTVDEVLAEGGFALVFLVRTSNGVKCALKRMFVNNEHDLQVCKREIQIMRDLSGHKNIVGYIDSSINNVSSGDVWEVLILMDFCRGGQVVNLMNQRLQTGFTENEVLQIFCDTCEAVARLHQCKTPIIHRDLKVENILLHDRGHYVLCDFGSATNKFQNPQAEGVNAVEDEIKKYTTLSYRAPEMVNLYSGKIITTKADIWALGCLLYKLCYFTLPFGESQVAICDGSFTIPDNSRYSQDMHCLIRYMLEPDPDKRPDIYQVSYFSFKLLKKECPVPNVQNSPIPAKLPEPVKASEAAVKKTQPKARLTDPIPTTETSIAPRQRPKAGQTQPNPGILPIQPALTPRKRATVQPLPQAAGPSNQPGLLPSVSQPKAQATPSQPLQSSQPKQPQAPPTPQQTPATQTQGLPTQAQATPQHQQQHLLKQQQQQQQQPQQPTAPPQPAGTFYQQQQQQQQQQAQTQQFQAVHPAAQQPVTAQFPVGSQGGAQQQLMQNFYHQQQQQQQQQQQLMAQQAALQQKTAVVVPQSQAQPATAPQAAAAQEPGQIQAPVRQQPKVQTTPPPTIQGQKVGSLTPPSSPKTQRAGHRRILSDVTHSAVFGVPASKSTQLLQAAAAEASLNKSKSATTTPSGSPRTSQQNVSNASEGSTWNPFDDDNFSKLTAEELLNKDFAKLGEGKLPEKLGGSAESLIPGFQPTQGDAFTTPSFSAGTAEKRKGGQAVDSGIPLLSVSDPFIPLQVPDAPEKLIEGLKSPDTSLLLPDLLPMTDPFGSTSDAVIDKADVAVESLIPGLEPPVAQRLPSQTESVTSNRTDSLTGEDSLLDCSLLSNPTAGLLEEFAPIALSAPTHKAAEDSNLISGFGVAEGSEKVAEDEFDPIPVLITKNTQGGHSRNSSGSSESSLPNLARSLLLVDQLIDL
T9 sequence (P18653 whole entry): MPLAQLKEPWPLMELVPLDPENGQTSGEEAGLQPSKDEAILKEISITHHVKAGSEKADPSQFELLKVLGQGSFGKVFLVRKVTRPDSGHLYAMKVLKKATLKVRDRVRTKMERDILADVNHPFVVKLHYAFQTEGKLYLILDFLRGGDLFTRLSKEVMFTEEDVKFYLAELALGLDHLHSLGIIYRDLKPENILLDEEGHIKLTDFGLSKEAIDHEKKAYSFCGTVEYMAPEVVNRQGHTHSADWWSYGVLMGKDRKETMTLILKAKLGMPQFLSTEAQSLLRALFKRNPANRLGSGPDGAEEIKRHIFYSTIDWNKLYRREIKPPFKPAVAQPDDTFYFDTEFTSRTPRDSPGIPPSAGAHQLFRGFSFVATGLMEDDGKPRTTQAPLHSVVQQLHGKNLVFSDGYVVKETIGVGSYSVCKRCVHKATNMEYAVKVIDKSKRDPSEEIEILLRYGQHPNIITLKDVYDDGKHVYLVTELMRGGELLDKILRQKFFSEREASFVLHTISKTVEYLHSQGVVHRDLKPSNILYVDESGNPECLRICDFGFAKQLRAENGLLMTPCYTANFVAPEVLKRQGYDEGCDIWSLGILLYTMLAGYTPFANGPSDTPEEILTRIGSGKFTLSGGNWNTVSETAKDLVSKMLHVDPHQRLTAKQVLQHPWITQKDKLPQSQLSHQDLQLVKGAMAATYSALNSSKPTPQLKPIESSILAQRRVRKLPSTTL
T6 sequence (Q9WTU6 whole entry): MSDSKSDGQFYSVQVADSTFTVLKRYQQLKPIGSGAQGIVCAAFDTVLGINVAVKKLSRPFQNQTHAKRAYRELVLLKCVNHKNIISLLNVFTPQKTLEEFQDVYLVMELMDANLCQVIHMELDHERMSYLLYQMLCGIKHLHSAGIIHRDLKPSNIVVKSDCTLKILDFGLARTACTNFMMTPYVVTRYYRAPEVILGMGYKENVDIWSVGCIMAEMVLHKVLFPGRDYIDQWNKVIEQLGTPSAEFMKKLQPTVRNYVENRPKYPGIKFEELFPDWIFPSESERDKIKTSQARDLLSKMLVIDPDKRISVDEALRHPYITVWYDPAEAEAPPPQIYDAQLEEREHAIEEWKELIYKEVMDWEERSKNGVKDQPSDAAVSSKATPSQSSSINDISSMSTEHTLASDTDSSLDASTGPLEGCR
T5 sequence (Q91Y86 whole entry): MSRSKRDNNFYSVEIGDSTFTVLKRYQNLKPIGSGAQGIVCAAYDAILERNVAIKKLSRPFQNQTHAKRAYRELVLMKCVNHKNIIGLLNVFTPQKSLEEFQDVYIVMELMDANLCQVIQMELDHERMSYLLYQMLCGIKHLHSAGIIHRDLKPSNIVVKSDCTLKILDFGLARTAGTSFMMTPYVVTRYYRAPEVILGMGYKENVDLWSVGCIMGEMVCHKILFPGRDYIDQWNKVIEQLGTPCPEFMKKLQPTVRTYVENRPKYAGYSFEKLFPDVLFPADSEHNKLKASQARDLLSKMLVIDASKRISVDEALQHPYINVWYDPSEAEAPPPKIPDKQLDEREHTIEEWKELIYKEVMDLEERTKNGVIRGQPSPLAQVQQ
CaMK2b, sequence (P28652 whole entry): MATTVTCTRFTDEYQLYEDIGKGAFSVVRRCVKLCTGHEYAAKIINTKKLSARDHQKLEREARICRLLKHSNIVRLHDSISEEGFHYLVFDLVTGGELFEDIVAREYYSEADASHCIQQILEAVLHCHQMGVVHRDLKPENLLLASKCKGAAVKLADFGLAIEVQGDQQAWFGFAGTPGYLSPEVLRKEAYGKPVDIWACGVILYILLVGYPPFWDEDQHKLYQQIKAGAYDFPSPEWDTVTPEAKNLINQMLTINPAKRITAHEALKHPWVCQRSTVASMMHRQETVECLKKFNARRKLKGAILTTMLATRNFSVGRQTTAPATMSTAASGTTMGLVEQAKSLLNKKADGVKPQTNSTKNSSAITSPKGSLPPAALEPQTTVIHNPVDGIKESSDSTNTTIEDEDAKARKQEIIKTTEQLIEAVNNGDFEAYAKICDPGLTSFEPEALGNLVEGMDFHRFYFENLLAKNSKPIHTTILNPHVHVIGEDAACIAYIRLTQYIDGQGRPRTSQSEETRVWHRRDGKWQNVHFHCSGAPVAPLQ
CDK5, sequence (P49615 whole entry): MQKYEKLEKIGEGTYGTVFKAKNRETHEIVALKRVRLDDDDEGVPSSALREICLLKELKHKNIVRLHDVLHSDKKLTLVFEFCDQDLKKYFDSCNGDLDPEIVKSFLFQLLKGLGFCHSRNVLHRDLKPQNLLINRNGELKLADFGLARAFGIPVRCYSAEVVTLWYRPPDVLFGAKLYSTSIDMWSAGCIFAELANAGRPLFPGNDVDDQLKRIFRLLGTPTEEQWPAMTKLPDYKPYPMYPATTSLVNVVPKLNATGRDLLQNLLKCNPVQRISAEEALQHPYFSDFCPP
T4 sequence (Q63844 2-380 limits assumed): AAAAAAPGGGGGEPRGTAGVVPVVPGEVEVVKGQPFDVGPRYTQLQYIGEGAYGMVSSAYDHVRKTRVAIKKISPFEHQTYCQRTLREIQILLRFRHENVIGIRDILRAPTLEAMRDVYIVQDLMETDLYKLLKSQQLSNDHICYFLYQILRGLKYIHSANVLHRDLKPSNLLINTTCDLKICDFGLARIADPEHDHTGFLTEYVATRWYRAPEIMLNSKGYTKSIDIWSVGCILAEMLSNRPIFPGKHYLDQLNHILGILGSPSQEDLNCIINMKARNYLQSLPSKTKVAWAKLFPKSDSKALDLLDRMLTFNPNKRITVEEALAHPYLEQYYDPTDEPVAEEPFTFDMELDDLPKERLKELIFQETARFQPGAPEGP
T7 sequence (Q61831 whole entry): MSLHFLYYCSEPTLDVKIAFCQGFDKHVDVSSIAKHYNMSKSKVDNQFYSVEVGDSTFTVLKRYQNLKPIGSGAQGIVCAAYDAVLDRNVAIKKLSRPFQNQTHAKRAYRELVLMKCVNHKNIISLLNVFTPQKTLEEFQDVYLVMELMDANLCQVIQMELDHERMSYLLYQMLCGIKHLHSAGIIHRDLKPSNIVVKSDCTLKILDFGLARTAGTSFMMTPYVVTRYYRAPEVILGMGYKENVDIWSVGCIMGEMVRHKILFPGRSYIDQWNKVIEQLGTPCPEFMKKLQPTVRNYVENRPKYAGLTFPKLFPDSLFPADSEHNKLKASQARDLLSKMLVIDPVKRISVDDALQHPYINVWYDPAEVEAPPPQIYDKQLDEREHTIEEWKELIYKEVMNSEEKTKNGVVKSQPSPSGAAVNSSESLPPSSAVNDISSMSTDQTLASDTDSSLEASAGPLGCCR

mass spectrometry score, AAK1 [1] | number of identified peptides, AAK1 [1] | mass spectrometry score, CDK5 [2] | number of identified peptides, CDK5 [2] | mass spectrometry score, CaMK2a [3] | number of identified peptides, CaMK2a [3] | mass spectrometry score, CaMK2b [4] | number of identified peptides, CaMK2b [4] | mass spectrometry score, CaMK2d [5] | number of identified peptides, CaMK2d [5] | mass spectrometry score, EphB2 [6] | number of identified peptides, EphB2 [6] | mass spectrometry score, Erk1ps5 [7] | number of identified peptides, Erk1ps5 [7] | mass spectrometry score, JNK1 [8] | number of identified peptides, JNK1 [8] | mass spectrometry score, JNK3 [10] | number of identified peptides, JNK3 [10] | mass spectrometry score, PYK2 [11] | number of identified peptides, PYK2 [11] | SMILES | further results
718 | 35 | 794 | 27 | 966 | 43 | 685 | 30 | 444 | 11 | 149 | 5 | 386 | 26 | 590 | 48 | 642 | 23 | 1228 | 58 | NCc1ccc(Nc2ncc(F)c(Nc3ccccc3)n2)cc1 [CZC00008004] | mass spectrometry score, JNK2 [9]: 662; number of identified peptides, JNK2 [9]: 18; mass spectrometry score, YESps [12]: 110; number of identified peptides, YESps [12]: 3
1036 | 51 | 1086 | 41 | 978 | 27 | 679 | 16 | 473 | 12 | 1334 | 30 | 749 | 48 | 311 | 10 | 284 | 7 | 1909 | 48 | CC(C)[C@H](CO)Nc1nc(Nc2ccc(C(=O)O)c(Cl)c2)c2ncn(C(C)C)c2n1 [Purvalanol B, reference compound] | mass spectrometry score, JNK2 [9]: 277; number of identified peptides, JNK2 [9]: 7; mass spectrometry score, RSK3 [13]: 401; mass spectrometry score, YESps [12]: 304; number of identified peptides, YESps [12]: 7
582 | 35 | 462 | 11 | 513 | 11 | 499 | 14 | 328 | 7 | 1004 | 22 | 557 | 77 | 448 | 17 | 782 | 49 | 1401 | 42 | Cn1c(=O)c(-c2c(Cl)cccc2Cl)cc2cnc(Nc3ccc(CN)cc3)cc21 [CZC7324] | mass spectrometry score, JNK2 [9]: 702; number of identified peptides, JNK2 [9]: 21; mass spectrometry score, RSK3 [13]: 312
240 | 32 | 604 | 21 | 786 | 74 | 615 | 75 | 434 | 36 | 437 | 19 | 239 | 8 | 389 | 47 | 447 | 27 | 809 | 39 | CCCCCCCCCCCCOS(=O)(=O)[O-].[Na+] [SDS] | mass spectrometry score, JNK2 [9]: 369; number of identified peptides, JNK2 [9]: 20; mass spectrometry score, RSK3 [13]: 107; mass spectrometry score, YESps [12]: 236; number of identified peptides, YESps [12]: 13

SMILES | mass spectrometry score, AAK1 [1] | number of identified peptides, AAK1 [1] | mass spectrometry score, CDK5 [2] | number of identified peptides, CDK5 [2] | mass spectrometry score, CaMK2a [3] | number of identified peptides, CaMK2a [3] | mass spectrometry score, CaMK2b [4] | number of identified peptides, CaMK2b [4] | mass spectrometry score, CaMK2d [5] | number of identified peptides, CaMK2d [5] | mass spectrometry score, EphB2 [6] | number of identified peptides, EphB2 [6] | mass spectrometry score, Erk1ps5 [7] | number of identified peptides, Erk1ps5 [7] | mass spectrometry score, JNK1 [8] | number of identified peptides, JNK1 [8] | mass spectrometry score, JNK3 [10] | number of identified peptides, JNK3 [10] | mass spectrometry score, PYK2 [11] | number of identified peptides, PYK2 [11] | further results
CNC1CC2OC(C)(C1OC)n1c3ccccc3c3c4c(c5c6ccccc6n2c5c31)C(=O)NC4 (stereo not drawn) [CZC9280] | 777 | 44 | 861 | 43 | 1027 | 69 | 1182 | 72 | 822 | 40 | 114 | 4 | 71 | 2 | 457 | 16 | 363 | 10 | 1978 | 82 | mass spectrometry score, RSK3 [13]: 721; mass spectrometry score, YESps [12]: 480; number of identified peptides, YESps [12]: 12
